Results on 22 molecules are retold here after patent US20170152239A1, “BENZAMIDE AND HETEROBENZAMIDE COMPOUNDS” (PFIZER INC., priority 2012, published 2017).

What all share (type): biochemical
Assay [1] has as its target WT EZH2 (EZH2 4 protein complex: EZH2, EED, SUZ12, RbAp48) (Homo sapiens, UniProt Q15910). Nature of the assay: WT EZH2 nucleosome assay. To be noted: compound at 20 μM; nucleosome assay. The essentials: (§1)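 IC50 values come from 4-parameter fits of 11-point dose responses, with % effect also given at 20 μM. Reactions held HeLa oligonucleosomes (25 μg/mL), rH1 (50 nM), 1.5 μM tritiated SAM and 5 nM enzyme complex at pH 8.5 Tris/DTT/Tween; stopped by TCA after 60 min, filtered and scintillation-counted.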

The target in assay [2] is WT EZH2 (EZH2 4 protein complex: EZH2, EED, SUZ12, RbAp48) (Homo sapiens, UniProt O75530+Q09028+Q15022+Q15910). Briefly: WT EZH2 nucleosome assay. The settings on record: nucleosome assay, 5 nM EZH2 4-protein complex, 1.5 μM SAM; read-out: WT EZH2 IC50. The essentials:
as §1

Assay [3] has as its target EZH2PRC2 mutant Y641N (Homo sapiens, UniProt Q15910, Y641N). Nature of the assay: EZH2PRC2 mutant Y641N nucleosome assay. The settings on record: read-out: EZH2PCR2 Mutant Y641N IC50. On the procedure:
Nucleosome Assay Protocol:
A. Compound preparation • 1. Prepare 10 mM stock solutions in 100% DMSO from solid material • 2. Serial dilute 10 mM compound stocks either 2 or 3-fold in 100% DMSO to generate compounds for 11 point dose response
B. Reagent preparation • 1. Prepare 1× assay buffer containing 100 mM Tris pH 8.5, 4 mM DTT and 0.01% Tween-20 • 2. Dilute purified HeLA oligonucleosomes and recombinant histone H1 (New England Biolabs) in assay buffer to 1.67×. • 3. Dilute EZH2 4 protein complex (EZH2, EED, SUZ12, RbAp48) to 3.5× in assay buffer • 4. Prepare 10×^3H SAM solution in assay buffer using 0.94 μCi/well of radioactive SAM (Perkin Elmer) and sufficient non-labeled SAM (Sigma) for 1.5 μM final concentration. • 5. Dilute TCA to 20% in DI water
C. Enzyme reaction • 1. Final reaction conditions are 5 nM EZH2 4-protein complex, 1.5 μM SAM, 25 μg/mL oligonucleosomes, 50 nM rH1 in a 50 μl reaction volume. • 2. Add 1 μl of diluted compound to the assay plate (96-well V-bottom polypropylene plates) or 1 μl of DMSO for control wells. • 3. Add 30 μl of nucleosomes to the assay plate • 4. Add 14 μl of EZH2 4 protein complex to the assay plate • 5. Add 5 μl of ^3H SAM to start the reaction. • 6. Stop the reaction after 60 minutes with the addition of 100 μl of 20% TCA • 7. Transfer 150 μl of quenched reaction into a prepared filterplate (Millipore #MSIPN4B10) • 8. Apply vacuum to the filterplate to filter the reaction mix through the membrane. • 9. Wash the filterplate with 8×200 μl of PBS, blot dry and dry in an oven for 30 minutes • 10. Add 50 μl of microscint-20 scintillation fluid (Perkin Elmer) to each well, wait 30 minutes and count on a liquid scintillation counter.
D. Data analysis • 1. IC50 values were determined by fitting the data to a 4-parameter IC50 equation using proprietary curve fitting software.
Wild type (WT) EZH2% Effect at 20 μM and IC50 values (μM) generated in WT EZH2 or EZH2PRC2 mutant Y641N nucleosome assays are provided in Table 3 below. A blank entry in the table indicates the data was not generated in that assay.

Chain of WT EZH2 (EZH2 4 protein complex: EZH2, EED, SUZ12, RbAp48) (Homo sapiens, UniProt O75530+Q09028+Q15022+Q15910) (Q15910 whole entry): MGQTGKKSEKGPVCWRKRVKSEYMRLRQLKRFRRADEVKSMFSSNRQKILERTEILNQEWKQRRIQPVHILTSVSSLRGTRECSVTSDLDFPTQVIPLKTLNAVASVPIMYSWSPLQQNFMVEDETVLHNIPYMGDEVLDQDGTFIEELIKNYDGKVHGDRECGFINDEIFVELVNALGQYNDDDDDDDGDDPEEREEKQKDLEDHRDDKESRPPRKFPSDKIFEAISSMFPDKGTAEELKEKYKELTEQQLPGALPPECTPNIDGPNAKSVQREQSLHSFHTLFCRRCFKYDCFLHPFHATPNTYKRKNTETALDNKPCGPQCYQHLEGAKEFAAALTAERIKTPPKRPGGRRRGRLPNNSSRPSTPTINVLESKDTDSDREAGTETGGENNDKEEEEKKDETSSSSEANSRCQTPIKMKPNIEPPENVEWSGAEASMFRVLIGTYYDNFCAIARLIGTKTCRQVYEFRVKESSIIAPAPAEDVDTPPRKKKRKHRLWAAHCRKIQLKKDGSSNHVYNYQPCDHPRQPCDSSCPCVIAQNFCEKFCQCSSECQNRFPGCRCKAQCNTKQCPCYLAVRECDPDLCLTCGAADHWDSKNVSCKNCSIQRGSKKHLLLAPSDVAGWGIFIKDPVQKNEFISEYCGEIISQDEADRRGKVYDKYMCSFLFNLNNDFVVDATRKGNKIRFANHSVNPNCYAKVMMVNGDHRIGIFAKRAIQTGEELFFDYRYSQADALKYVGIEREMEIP
Chain of WT EZH2 (EZH2 4 protein complex: EZH2, EED, SUZ12, RbAp48) (Homo sapiens, UniProt O75530+Q09028+Q15022+Q15910) (O75530 whole entry partner): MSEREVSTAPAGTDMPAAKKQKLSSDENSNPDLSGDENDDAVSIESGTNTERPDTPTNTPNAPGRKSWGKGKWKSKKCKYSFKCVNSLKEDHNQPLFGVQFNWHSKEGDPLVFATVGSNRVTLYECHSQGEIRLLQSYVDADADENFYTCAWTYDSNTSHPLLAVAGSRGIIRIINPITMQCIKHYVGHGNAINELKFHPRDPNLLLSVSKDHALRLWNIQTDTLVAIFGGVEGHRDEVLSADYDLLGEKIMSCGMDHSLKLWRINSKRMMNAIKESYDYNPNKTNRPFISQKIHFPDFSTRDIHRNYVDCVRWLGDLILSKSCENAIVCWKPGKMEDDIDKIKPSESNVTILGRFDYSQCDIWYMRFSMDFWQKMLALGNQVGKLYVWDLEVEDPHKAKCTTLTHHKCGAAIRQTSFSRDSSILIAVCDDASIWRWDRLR
Chain of WT EZH2 (EZH2 4 protein complex: EZH2, EED, SUZ12, RbAp48) (Homo sapiens, UniProt O75530+Q09028+Q15022+Q15910) (Q15022 whole entry partner): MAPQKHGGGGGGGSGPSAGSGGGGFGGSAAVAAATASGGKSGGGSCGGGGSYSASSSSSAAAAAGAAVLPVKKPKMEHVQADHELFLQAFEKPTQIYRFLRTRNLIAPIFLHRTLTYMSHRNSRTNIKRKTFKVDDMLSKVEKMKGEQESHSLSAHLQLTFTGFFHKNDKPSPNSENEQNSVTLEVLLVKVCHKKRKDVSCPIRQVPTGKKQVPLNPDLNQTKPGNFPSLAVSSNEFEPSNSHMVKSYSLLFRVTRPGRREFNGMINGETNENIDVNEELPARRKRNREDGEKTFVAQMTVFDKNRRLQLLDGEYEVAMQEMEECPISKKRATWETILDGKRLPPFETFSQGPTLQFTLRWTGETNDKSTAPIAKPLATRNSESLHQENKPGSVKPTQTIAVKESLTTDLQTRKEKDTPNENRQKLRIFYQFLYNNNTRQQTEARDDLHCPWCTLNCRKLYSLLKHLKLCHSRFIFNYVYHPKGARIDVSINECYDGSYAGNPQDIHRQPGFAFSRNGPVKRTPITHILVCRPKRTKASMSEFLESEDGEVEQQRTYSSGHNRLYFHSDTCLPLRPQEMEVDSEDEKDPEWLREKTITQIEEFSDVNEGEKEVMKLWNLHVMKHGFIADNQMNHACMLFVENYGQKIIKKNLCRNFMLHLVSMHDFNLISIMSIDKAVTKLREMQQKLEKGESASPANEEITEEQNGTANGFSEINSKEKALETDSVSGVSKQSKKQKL
Chain of WT EZH2 (EZH2 4 protein complex: EZH2, EED, SUZ12, RbAp48) (Homo sapiens, UniProt O75530+Q09028+Q15022+Q15910) (Q09028 whole entry partner): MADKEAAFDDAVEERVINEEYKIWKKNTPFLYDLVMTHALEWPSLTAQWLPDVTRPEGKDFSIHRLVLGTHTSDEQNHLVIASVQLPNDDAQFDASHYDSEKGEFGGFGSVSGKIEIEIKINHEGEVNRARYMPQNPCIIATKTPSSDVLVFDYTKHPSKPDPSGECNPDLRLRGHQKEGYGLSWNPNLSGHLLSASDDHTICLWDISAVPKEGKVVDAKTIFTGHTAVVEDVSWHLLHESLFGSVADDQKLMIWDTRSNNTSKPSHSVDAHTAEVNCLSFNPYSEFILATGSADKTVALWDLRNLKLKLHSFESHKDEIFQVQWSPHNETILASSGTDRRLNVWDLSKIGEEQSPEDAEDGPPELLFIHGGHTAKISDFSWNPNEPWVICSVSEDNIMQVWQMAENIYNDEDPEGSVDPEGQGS
Chain of WT EZH2 (EZH2 4 protein complex: EZH2, EED, SUZ12, RbAp48) (Homo sapiens, UniProt Q15910) (Q15910 whole entry): as the sequence (Q15910 whole entry) above
Chain of WT EZH2 (EZH2 4 protein complex: EZH2, EED, SUZ12, RbAp48) (Homo sapiens, UniProt Q15910) (O75530 whole entry partner): as the sequence (O75530 whole entry partner) above
Chain of WT EZH2 (EZH2 4 protein complex: EZH2, EED, SUZ12, RbAp48) (Homo sapiens, UniProt Q15910) (Q15022 whole entry partner): as the sequence (Q15022 whole entry partner) above
Chain of WT EZH2 (EZH2 4 protein complex: EZH2, EED, SUZ12, RbAp48) (Homo sapiens, UniProt Q15910) (Q09028 whole entry partner): as the sequence (Q09028 whole entry partner) above
Chain of EZH2PRC2 mutant Y641N (Q15910 whole entry Y641N): as the sequence (Q15910 whole entry) above, with Y641N counted along it
Chain of EZH2PRC2 mutant Y641N (O75530 whole entry partner): as the sequence (O75530 whole entry partner) above
Chain of EZH2PRC2 mutant Y641N (Q15022 whole entry partner): as the sequence (Q15022 whole entry partner) above
Chain of EZH2PRC2 mutant Y641N (Q09028 whole entry partner): as the sequence (Q09028 whole entry partner) above

Broadly, the IC50 is the point on the concentration scale where inhibition reaches its midpoint. Consider `Cc1cc(C)c(CNC(=O)c2cc(Cl)cc(-c3ccnn3C)c2C)c(=O)[nH]1` [Example 5, 5-chloro-N-[(4,6-dimethyl-2-oxo-1,2-dihydropyridin-3-yl)methyl]-2-methyl-3-(1-methyl-1H-pyrazol-5-yl)benzamide], for which, in assay [1], the “% Effect in WT EZH2 at 20 μM” value was 94.88%. In assay [2], the IC50 amounted to 0.45 µM.

As to `Cc1cc(C)c(CNC(=O)c2cc(-c3cnn(C)c3)cc(OC(C)C)c2Cl)c(=O)[nH]1` [Example 26, 2-chloro-N-[(4,6-dimethyl-2-oxo-1,2-dihydropyridin-3-yl)methyl]-3-isopropoxy-5-(1-methyl-1H-pyrazol-4-yl)benzamide], the “% Effect in WT EZH2 at 20 μM” value in assay [1] was found to be 93.705%. Also, the IC50 in assay [2] was found to be 0.93 µM.

In the case of `Cc1cc(C)c(CNC(=O)c2cc(-c3cnn(C)c3)nc(OC(C)C)c2Cl)c(=O)[nH]1` [Example 33, 3-chloro-N-[(4,6-dimethyl-2-oxo-1,2-dihydropyridin-3-yl)methyl]-2-isopropoxy-6-(1-methyl-1H-pyrazol-4-yl)isonicotinamide], in assay [1], the “% Effect in WT EZH2 at 20 μM” value is 92.965%. Also, the IC50 in assay [2] is 0.78 µM.

As for `Cc1cc(C)c(CNC(=O)c2cc(-c3ccc4c(c3)CS(=O)(=O)C4)cc(-c3ccnn3C)c2C)c(=O)[nH]1` [Example 35, N-[(4,6-dimethyl-2-oxo-1,2-dihydropyridin-3-yl)methyl]-5-(2,2-dioxido-1,3-dihydro-2-benzothien-5-yl)-2-methyl-3-(1-methyl-1H-pyrazol-5-yl)benzamide], the IC50 in assay [2] was 0.042 µM; in assay [3], 0.35 µM.

Turning to `Cc1cc(C)c(CNC(=O)c2nc(Cl)nc(N3CCN(C)C[C@@H]3C)c2C)c(=O)[nH]1` [Example 36, 2-chloro-N-[(4,6-dimethyl-2-oxo-1,2-dihydropyridin-3-yl)methyl]-6-[(2S)-2,4-dimethylpiperazin-1-yl]-5-methylpyrimidine-4-carboxamide], the IC50 in assay [2] came out at 2.08 µM; in assay [3], 13 µM.

Take `Cc1cc(C)c(CNC(=O)c2nc(Cl)nc(N3CCOC[C@@H]3C)c2C)c(=O)[nH]1` [Example 37, 2-chloro-N-[(4,6-dimethyl-2-oxo-1,2-dihydropyridin-3-yl)methyl]-5-methyl-6-[(3S)-3-methyl-morpholin-4-yl]pyrimidine-4-carboxamide]: the values for the IC50 in assay [2] and in assay [3] were 1.19 µM and 6.25 µM, respectively.

Regarding `Cc1cc(C)c(CNC(=O)c2nc(Cl)nc(N3CCC[C@@H]3C)c2C)c(=O)[nH]1` [Example 41, 2-chloro-N-[(4,6-dimethyl-2-oxo-1,2-dihydropyridin-3-yl)methyl]-5-methyl-6-[(2S)-2-methylpyrrolidin-1-yl]pyrimidine-4-carboxamide], the IC50 in assay [2] turned out to be 1.1 µM; in assay [3] it was 7.81 µM.

Regarding `Cc1cc(C)c(CNC(=O)c2cccc(OC(C)C)c2Cl)c(=O)[nH]1` [Example 46, 2-chloro-N-[(4,6-dimethyl-2-oxo-1,2-dihydropyridin-3-yl)methyl]-3-isopropoxy-benzamide], the “% Effect in WT EZH2 at 20 μM” value in assay [1] amounted to 93.582%. Further, the 50% inhibitory concentration (IC50) in assay [2] turned out to be 1.63 µM.

For `CCOc1cccc(C(=O)NCc2c(C)cc(C)[nH]c2=O)c1C` [Example 48, N-[(4,6-dimethyl-2-oxo-1,2-dihydropyridin-3-yl)methyl]-3-ethoxy-2-methyl-benzamide], the IC50 in assay [2] is 1.81 µM; in assay [3], 19.8 µM.

Regarding `COCc1cc(C)[nH]c(=O)c1CNC(=O)c1cc(Cl)cc(-c2ccnn2C)c1C` [Example 50, 5-chloro-N-{[4-(methoxymeth-yl)-6-methyl-2-oxo-1,2-dihydropyridin-3-yl]methyl}-2-methyl-3-(1-methyl-1H-pyrazol-5-yl)benzamide], the IC50 in assay [2] worked out at 2.05 µM; in assay [3], 26.7 µM.

Regarding `COc1cccc(C(=O)NCc2c(C)cc(C)[nH]c2=O)c1C` [Example 60, N-[(4,6-dimethyl-2-oxo-1,2-dihydropyridin-3-yl)methyl]-3-methoxy-2-methylbenz-amide], the IC50 amounted to 3.98 µM in assay [2] and 50.4 µM in assay [3].

As to `Cc1cc(C)c(CNC(=O)c2ccnc(OC(C)C)c2Cl)c(=O)[nH]1` [Example 65, 3-chloro-N-[(4,6-dimethyl-2-oxo-1,2-dihydropyridin-3-yl)methyl]-2-isopropoxyiso-nicotinamide], in assay [1], the “% Effect in WT EZH2 at 20 μM” value worked out at 71.459%. The IC50 in assay [2] amounted to 4.51 µM.

On to `COc1cccc(C(=O)NCc2c(C)cc(C)[nH]c2=O)c1Br` [Example 66, 2-bromo-N-[(4,6-dimethyl-2-oxo-1,2-dihydropyridin-3-yl)methyl]-3-methoxybenza-mide], for which the “% Effect in WT EZH2 at 20 μM” value in assay [1] was found to be 76.288%. The 50% inhibitory concentration (IC50) in assay [2] was determined as 4.88 µM.

For the molecule `Cc1cc(C)c(CNC(=O)c2ncnc(N3CCN(C)C[C@@H]3C)c2C)c(=O)[nH]1` [Example 67, N-[(4,6-dimethyl-2-oxo-1,2-dihydropyridin-3-yl)methyl]-6-[(2S)-2,4-dimethylpipera-zin-1-yl]-5-methylpyrimi-dine-4-carboxamide], the IC50 in assay [2] was determined as 4.93 µM; in assay [3] it was 23.5 µM.

For the molecule `Cc1cc(-c2cc(Cl)cc(C(=O)NCc3c(C)cc(C)[nH]c3=O)c2C)n(C)n1` [Example 77, 5-chloro-N-[(4,6-dimethyl-2-oxo-1,2-dihydropyridin-3-yl)methyl]-3-(1,3-dimethyl-1H-pyrazol-5-yl)-2-methylbenz-amide], in assay [1], the “% Effect in WT EZH2 at 20 μM” value was determined as 69.743%. Moreover, in assay [2], the IC50 turned out to be 7.03 µM.

In the case of `Cc1cc(C)c(CNC(=O)c2nccc(OC(C)C)c2C)c(=O)[nH]1` [Example 82, N-[(4,6-dimethyl-2-oxo-1,2-dihydropyridin-3-yl)methyl]-4-isopropoxy-3-methylpyridine-2-carboxamide], the “% Effect in WT EZH2 at 20 μM” value in assay [1] was 69.830%. Further, the concentration for half-maximal inhibition (IC50) in assay [2] was found to be 7.79 µM.

With `Cc1cc(C)c(CNC(=O)c2nc(N3CCCC3)nc(N3CCC[C@@H]3C)c2C)c(=O)[nH]1` [Example 88, N-[(4,6-dimethyl-2-oxo-1,2-dihydropyridin-3-yl)methyl]-5-methyl-6-[(2S)-2-methylpyrroli-din-1-yl]-2-pyrrolidin-1-ylpyrimidine-4-carboxamide], the IC50 in assay [2] was found to be 9.82 µM; in assay [3], 34.8 µM.

On to `Cc1cc(C)c(CNC(=O)c2ncnc(N3[C@@H](C)COC[C@@H]3C)c2C)c(=O)[nH]1` [Example 89, 6-[(3S,5S)-3,5-dimethylmorph-olin-4-yl]-N-[(4,6-dimethyl-2-oxo-1,2-dihydropyridin-3-yl)methyl]-5-methylpyrimi-dine-4-carboxamide], for which the IC50 is 11 µM in assay [2] and 82.4 µM in assay [3].

Regarding `Cc1cc(C)c(CNC(=O)c2ccnc(N3CCC[C@H]3C)c2Cl)c(=O)[nH]1` [Example 106, 3-chloro-N-[(4,6-dimethyl-2-oxo-1,2-dihydropyridin-3-yl)methyl]-2-[(2R)-2-methylpyrrolidin-1-yl]isonicotin-amide], the IC50 amounted to 19.8 µM in assay [2] and 86 µM in assay [3].

As to `CCn1ncc(C)c1-c1cccc(C(=O)NCc2c(C)c(Br)c(C)[nH]c2=O)c1C` [Example 147, N-[(5-bromo-4,6-dimethyl-2-oxo-1,2-dihydropyridin-3-yl)methyl]-3-(1-ethyl-4-methyl-1H-pyrazol-5-yl)-2-methylbenzamide], the IC50 in assay [2] was 178 µM; in assay [3], > 200 µM.

`Cc1cc(C)c(CNC(=O)c2cc(-c3ccc(N4CCN(C)CC4)nc3)cc(-c3ccnn3C)c2C)c(=O)[nH]1` [Example 149, N-[(4,6-dimethyl-2-oxo-1,2-dihydropyridin-3-yl)methyl]-2-methyl-5-[6-(4-methylpiperazin-1-yl)pyridin-3-yl]-3-(1-methyl-1H-pyrazol-5-yl)benzamide]: the IC50 came out at 0.0342 µM in assay [2] and 0.198 µM in assay [3].

On to `Cc1cc(C)c(CNC(=O)c2cc(-c3ccc(CN4CCOCC4)cc3)cc(-c3ccnn3C)c2C)c(=O)[nH]1` [Example 150, N-[(4,6-dimethyl-2-oxo-1,2-dihydropyridin-3-yl)methyl]-4-methyl-5-(1-methyl-1H-pyrazol-5-yl)-4′-(morpholin-4-ylmethyl)bi-phenyl-3-carboxamide], for which the IC50 in assay [2] came out at 0.113 µM; in assay [3], 0.679 µM.
